Reference: US9783532B2, “Molecules having certain pesticidal utilities, and intermediates, compositions, and processes related thereto” (Dow AgroSciences LLC, priority 2013, dated 2017)

Columns and labels:
Type in all cases: in vivo
[1] = system: Beet Armyworm (Spodoptera exigua) ("BAW"); test: Bioassay on beet armyworm (BAW), 128-well diet tray assay; settings: for pest or weed control at 50 µg/cm2: Table ABC (FB), activity rating class, read-out: BAW (Biological Results, Insect species); for mortality at 50 µg/cm2: 168 h, 50 μg/cm^2 on artificial diet, second instar BAW larvae, 25° C., five to seven days, average of eight wells, read-out: BAW % Control (or Mortality) rating
Summary of the method: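 Percent mortality, averaged across eight wells, was read after five to seven days at 25° C. under 14:10 light-dark. Each well held one to five second-instar larvae on artificial diet that had been treated with 50 μg/cm^2 compound in 90:10 acetone-water and dried.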

[2] = system: Cabbage Looper (Trichoplusia ni) ("CL"); test: Bioassay on cabbage looper (CL), 128-well diet tray assay; settings: for pest or weed control at 50 µg/cm2: Table ABC (FB), activity rating class, read-out: CL (Biological Results, Insect species); for mortality at 50 µg/cm2: 168 h, 50 μg/cm^2 on artificial diet, second instar CL larvae, 25° C., five to seven days, average of eight wells, read-out: CL % Control (or Mortality) rating
Summary of the method: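 Percent mortality, averaged across eight replicate wells, was read after five to seven days at 25 °C under a 14:10 photoperiod. Each well held one to five second-instar T. ni on diet carrying a dried 50 μg/cm^2 dose applied in acetone-water 90:10.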

[3] = system: Yellow Fever Mosquito "YFM" (Aedes aegypti); settings: for YFM (Biological Results, Insect species): Table ABC (FB), activity rating class; for YFM % Control (or Mortality) rating: about 1 day-old larvae, 96-well plate, room temperature, 3 days
Procedure: Certain molecules disclosed in this document were tested against YFM using procedures described in the following paragraph. In the reporting of the results, the “YFM Rating Table” was used (See Table Section).
Master plates containing 400 μg of a molecule dissolved in 100 μL of dimethyl sulfoxide (DMSO) (equivalent to a 4000 ppm solution) are used. A master plate of assembled molecules contains 15 μL per well. To this plate, 135 μL of a 90:10 wateracetone mixture is added to each well. A robot (Biomek® NXP Laboratory Automation Workstation) is programmed to dispense 15 μL aspirations from the master plate into an empty 96-well shallow plate (“daughter” plate). There are 6 reps (“daughter” plates) created per master. The created daughter plates are then immediately infested with YFM larvae.
The day before plates are to be treated, mosquito eggs are placed in Millipore water containing liver powder to begin hatching (4 g. into 400 mL). After the daughter plates are created using the robot, they are infested with 220 μL of the liver powder/larval mosquito mixture (about 1 day-old larvae). After plates are infested with mosquito larvae, a non-evaporative lid is used to cover the plate to reduce drying. Plates are held at room temperature for 3 days prior to grading. After 3 days, each well is observed and scored based on mortality.

Row | SMILES | pest or weed control at 50 µg/cm2 [1] | pest or weed control at 50 µg/cm2 [2] | YFM (Biological Results, Insect species) [3] | mortality at 50 µg/cm2 [1] | mortality at 50 µg/cm2 [2] | YFM % Control (or Mortality) rating [3]
1 | Cc1ccc(N2/C(=N/C(=O)NCCc3ccc(-c4ncn(-c5ccc(OC(F)(F)F)cc5)n4)cc3)SCC2C)c(C(C)C)c1 (stereo not drawn) [FB60, (Z)-1-(3-(2-isopropyl-4-methylphenyl)-4-methylthiazolidin-2-ylidene)-3-(4-(1-(4-(trifluoromethoxy)phenyl)-1H-1,2,4-triazol-3-yl)phenethyl)urea] | 50 to 100% | 50 to 100% | A (80-100) |  |  | 
2 | C=CCN(CCc1ccc(-c2ncn(-c3ccc(OC(F)(F)F)cc3)n2)cc1)C(=O)/N=C1\SCC(=O)N1c1cc(C)ccc1C(C)C [FB61] | 50 to 100% | 50 to 100% | A (80-100) |  |  | 
3 | Cc1ccc(C(C)C)c(N2C(=O)CS/C2=N\C(=O)N(CCc2ccc(-c3ncn(-c4ccc(OC(F)(F)F)cc4)n3)cc2)CC2CC2)c1 [FB62, (Z)-1-(cyclopropylmethyl)-3-(3-(2-isopropyl-5-methylphenyl)-4-oxothiazolidin-2-ylidene)-1-(4-(1-(4-(trifluoromethoxy)phenyl)-1H-1,2,4-triazol-3-yl)phenethyl)urea] | 50 to 100% | 50 to 100% | A (80-100) |  |  | 
4 | Cc1ccc(C(C)C)c(N2C(=O)CS/C2=N\C(=O)NC2(Cc3ccc(-c4ncn(-c5ccc(OC(F)(F)F)cc5)n4)cc3)CC2)c1 [FB63, (Z)-1-(3-(2-isopropyl-5-methylphenyl)-4-oxothiazolidin-2-ylidene)-3-(1-(4-(1-(4-(trifluoromethoxy)phenyl)-1H-1,2,4-triazol-3-yl)benzyl)cyclopropyl)urea] | 50 to 100% | 50 to 100% | A (80-100) |  |  | 
5 | CS/C(=N\C(=O)NCCc1ccc(-c2ncn(-c3ccc(OC(F)(F)F)cc3)n2)cc1)Nc1cc(C)ccc1C(C)C [FB65, (Z)-methyl N-(2-isopropyl-5-methylphenyl)-N′-((4-(1-(4-(trifluoromethoxy)phenyl)-1H-1,2,4-triazol-3-yl)phenethyl)carbamoyl)carbamimidothioate] | 50 to 100% | 50 to 100% | A (80-100) |  |  | 
6 | Cc1ccc(C(C)C)c(N2/C(=N/C(=O)NCCc3ccc(-c4ncn(-c5ccc(OC(F)(F)F)cc5)n4)cc3)SCC2(C)O)c1 (stereo not drawn) [FB67, (Z)-1-(4-hydroxy-3-(2-isopropyl-5-methylphenyl)-4-methylthiazolidin-2-ylidene)-3-(4-(1-(4-(trifluoromethoxy)phenyl)-1H-1,2,4-triazol-3-yl)phenethyl)urea] | 50 to 100% | 50 to 100% | A (80-100) |  |  | 
7 | Cc1ccc(C(C)C)c(N2C(=O)CS/C2=N\C(=O)NCC(Br)c2ccc(-c3ncn(-c4ccc(OC(F)(F)F)cc4)n3)cc2)c1 (stereo not drawn) [FB71, (Z)-1-(2-bromo-2-(4-(1-(4-(trifluoromethoxy)phenyl)-1H-1,2,4-triazol-3-yl)phenyl)ethyl)-3-(3-(2-isopropyl-5-methylphenyl)-4-oxothiazolidin-2-ylidene)urea] | 50 to 100% | 50 to 100% | A (80-100) |  |  | 
8 | Cc1ccc(N2C(=O)CS/C2=N\C(=O)NCCc2ccc(-c3ncn(-c4ccc(OC(F)(F)F)cc4)n3)cc2)c(C(C)C)c1 [P26, (Z)-1-(3-(2-isopropyl-4-methylphenyl)-4-oxothiazolidin-2-ylidene)-3-(4-(1-(4-(trifluoromethoxy)phenyl)-1H-1,2,4-triazol-3-yl)phenethyl)urea] |  |  |  | 50 to 100% | 50 to 100% | A (80-100)
9 | Cc1cccc(N2C(=O)CS/C2=N\C(=O)NCCc2ccc(-c3ncn(-c4ccc(OC(F)(F)F)cc4)n3)cc2)c1C(C)C [P27, (Z)-1-(3-(2-isopropyl-3-methylphenyl)-4-oxothiazolidin-2-ylidene)-3-(4-(1-(4-(trifluoromethoxy)phenyl)-1H-1,2,4-triazol-3-yl)phenethyl)urea] |  |  |  | 50 to 100% | 50 to 100% | A (80-100)
10 | CCCc1ccc(C)cc1N1C(=O)CS/C1=N\C(=O)NCCc1ccc(-c2ncn(-c3ccc(OC(F)(F)F)cc3)n2)cc1 [P29, (Z)-1-(3-(5-methyl-2-propylphenyl)-4-oxothiazolidin-2-ylidene)-3-(4-(1-(4-(trifluoromethoxy)phenyl)-1H-1,2,4-triazol-3-yl)phenethyl)urea] |  |  |  | 50 to 100% | 50 to 100% | A (80-100)
11 | CC(C)(C)c1ccccc1N1C(=O)CS/C1=N\C(=O)NCCc1ccc(-c2ncn(-c3ccc(OC(F)(F)F)cc3)n2)cc1 [P30, (Z)-1-(3-(2-(tert-butyl)phenyl)-4-oxothiazolidin-2-ylidene)-3-(4-(1-(4-(trifluoromethoxy)phenyl)-1H-1,2,4-triazol-3-yl)phenethyl)urea] |  |  |  | 50 to 100% | 50 to 100% | A (80-100)
12 | CCc1cc(C)ccc1N1C(=O)CS/C1=N\C(=O)NCCc1ccc(-c2ncn(-c3ccc(OC(F)(F)F)cc3)n2)cc1 [P31, (Z)-1-(3-(2-ethyl-4-methylphenyl)-4-oxothiazolidin-2-ylidene)-3-(4-(1-(4-(trifluoromethoxy)phenyl)-1H-1,2,4-triazol-3-yl)phenethyl)urea] |  |  |  | 50 to 100% | 50 to 100% | A (80-100)
13 | CC(Cc1ccc(-c2ncn(-c3ccc(OC(F)(F)F)cc3)n2)cc1)NC(=O)/N=C1\SCC(=O)N1c1ccc(F)cc1C(C)C (stereo not drawn) [P33, (Z)-1-(3-(4-fluoro-2-isopropylphenyl)-4-oxothiazolidin-2-ylidene)-3-(1-(4-(1-(4-(trifluoromethoxy)phenyl)-1H-1,2,4-triazol-3-yl)phenyl)propan-2-yl)urea] |  |  |  | 50 to 100% | 50 to 100% | A (80-100)
14 | CCc1cccc(C)c1N1C(=O)CS/C1=N\C(=O)NC(C)Cc1ccc(-c2ncn(-c3ccc(OC(F)(F)F)cc3)n2)cc1 (stereo not drawn) [P42, (Z)-1-(3-(2-ethyl-1-methylphenyl)-4-oxothiazolidin-2-ylidene)-3-(1-(4-(1-(4-(trifluoromethoxy)phenyl)-1H-1,2,4-triazol-3-yl)phenyl)propan-2-yl)urea] |  |  |  | 50 to 100% | 50 to 100% | A (80-100)
15 | COc1ccc(N2C(=O)CS/C2=N\C(=O)NC(C)Cc2ccc(-c3ncn(-c4ccc(OC(F)(F)F)cc4)n3)cc2)c(C)c1 (stereo not drawn) [P45, (Z)-1-(3-(4-methoxy-2-methylphenyl)-4-oxothiazolidin-2-ylidene)-3-(1-(4-(1-(4-(trifluoromethoxy)phenyl)-1H-1,2,4-triazol-3-yl)phenyl)propan-2-yl)urea] |  |  |  | 50 to 100% | 50 to 100% | A (80-100)
16 | COc1cc(C)c(N2C(=O)CS/C2=N\C(=O)NCCc2ccc(-c3ncn(-c4ccc(OC(F)(F)F)cc4)n3)cc2)c(C)c1 [P47, (Z)-1-(3-(4-methoxy-2,6-dimethylphenyl)-4-oxothiazolidin-2-ylidene)-3-(4-(1-(4-(trifluoromethoxy)phenyl)-1H-1,2,4-triazol-3-yl)phenethyl)urea] |  |  |  | 50 to 100% | 50 to 100% | A (80-100)
17 | CCc1ccc(C)cc1N1C(=O)CS/C1=N\C(=O)NCCc1ccc(-c2ncn(-c3ccc(OC(F)(F)F)cc3)n2)cc1 [P49, (Z)-1-(3-(2-ethyl-5-methylphenyl)-4-oxothiazolidin-2-ylidene)-3-(4-(1-(4-(trifluoromethoxy)phenyl)-1H-1,2,4-triazol-3-yl)phenethyl)urea] |  |  |  | 50 to 100% | 50 to 100% | A (80-100)
18 | CCc1cccc(C)c1N1C(=O)CS/C1=N\C(=O)NCCc1ccc(-c2ncn(-c3ccc(OC(F)(F)F)cc3)n2)cc1 [P50] |  |  |  | 50 to 100% | 50 to 100% | A (80-100)
19 | COc1ccc(C(C)C)c(N2C(=O)CS/C2=N\C(=O)NCCc2ccc(-c3ncn(-c4ccc(C(F)(F)F)cc4)n3)cc2)c1 [P53, (Z)-1-(3-(2-isopropyl-5-methoxyphenyl)-4-oxothiazolidin-2-ylidene)-3-(4-(4-(1-(4-trifluoromethyl)phenyl)-1H-1,2,4-triazol-3-yl)phenethyl)urea] |  |  |  | 50 to 100% | 50 to 100% | A (80-100)
